Values quoted from earlier work, collected in US20190000794A1, “TRANSMUCOSAL CANNABINOID FORMULATION INCLUDING A CHITOSAN EXCIPEINT” (priority 2017, published 2019).

Conditions: oral consumption; first pass metabolism in the liver

Q: With CCCCCc1cc(O)c2c(c1)OC(C)(C)[C@@H]1CCC(C)=C[C@@H]21 [THC, trans-Δ^9-tetrahydrocannabinol] as the compound, how does the “fraction of THC consumed orally that is metabolized through first pass metabolism” value read?
A: The value was “up to 97%”.
